Results reported in US20120157521A1, “TREATMENT OF MACULAR DEGENERATION” (Bonomics Limited, priority 2009, published 2012).

Experiments:
tubulin = test: Tubulin polymerisation assay; assay type: biochemical
Experimental: Tubulin Polymerisation Assay: Tubulin polymerisation inhibition assays were performed using a fluorescent-based detection kit (#BK011, Cytoskeleton) according to the instructions of the manufacturer. The test compound was added to a 2 mg/ml tubulin solution containing 20% glycerol and 1 mM GTP in 1× Buffer 1 (Buffer 1: 80 mM Piperazine-N,N′-bis[2-ethanesulfonic acid]sequisodium salt; 2 mM magnesium chloride; 0.5 mM Ethylene glycol-bis(b-amino-ethyl ether)N,N,N′,N′-tetra-acetic acid, pH 6.9, 10 uM fluorescent reporter). Fluorescence was measured over a period of 42 minutes at 1 minute intervals. Increased fluorescence indicates increase in tubulin polymerisation. There is a ten-fold increase in the affinity of the fluorescent reporter for polymerised tubulin compared to monomeric tubulin subunits. The result is a fluorescence signal that closely follows tubulin polymerisation.

[1] = system: quiescent human umbilical vein endothelial cells (HUVEC); test: Proliferation assay - quiescent endothelium (MTT), HUVEC; assay type: cell-based; details: 48 hrs
Experimental: Proliferation Assay—quiescent endothelium: Human umbilical vein endothelial cells (CC-2519, Clonetics) were plated at 15000 cells/well in EBM2 (CC-3156, Clonetics)+0.5% FBS (CC-4101A, Clonetics)+GA-1000 (CC-4381A, Clonetics) in a 96 well plate in triplicate. Cells were cultured overnight at 37° C. 5% CO2. Medium was subsequently replaced with fresh medium including the compound or negative control. Cells were cultured for a period of 48 hrs. An MTT assay was performed to measure changes in cell numbers. Briefly, 20 μl of MTT reagent was added to cells containing 100 μl of EBM2+0.5% FBS and incubated at 37° C. for 2 hours. Absorbance was measured at 492 nm.

[2] = system: HUVEC cells under activated cell conditions; test: Disruption of endothelial cell cytoskeleton (actin staining); assay type: cell-based, human; details: 10 nM, 20 minutes, actin stain
Experimental: FIG. 7 depicts disruption of endothelial cell cytoskeleton by compound Example 2. Endothelial cells were cultured in the presence of 10 nM compound Example 2 or DMSO control, and after 20 mins washed, fixed and stained with actin.
HUVEC cells were cultured under “activated” cell conditions in the presence of 10 nM compound Example 2 or DMSO control (using HUVEC cells). After 20 minutes cells were washed, fixed and stained for actin. […] A bleb is defined as an irregular bulge in the plasma membrane of a cell caused by localized decoupling of the cytoskeleton from the plasma membrane. Blebbing is the term used to describe the formation of blebs.

[3] = system: HUVEC endothelial cell capillary formation; test: Endothelial cell capillary formation on Matrigel; details: HUVEC, 25,000/well, 96-well plates, 22 hrs
Experimental: DMSO vehicle was included in the analysis as a negative control. Cells were plated at 25,000/well in 96-well plates and cultured for 22 hrs.
DMSO vehicle (C, F) was included in the analysis as a negative control. Cells were plated at 25,000/well in 96-well plates and cultured for 22 hrs.

[4] = system: quiescent human abdominal aorta endothelial cells (HAAEC); test: Proliferation assay - quiescent endothelium, HAAEC; details: Endothelial cell, read-out: Quiescent EC50
[5] = system: stable pre-formed HUVEC capillary tubes; test: Disruptive activity on stable pre-formed capillary tubes on Matrigel; details: 5 hrs after compound, at concentrations that inhibit capillary formation

COc1cc(C(=O)c2c(C)oc3c(O)c(OC)ccc23)cc(OC)c1OC [Example 1, 2-Methyl-7-hydroxy-3-(3,4,5-trimethoxybenzoyl)-6-methoxybenzofuran]
Tubulin polymerisation inhibition (in words) (tubulin): potent tubulin polymerisation inhibitor

COc1cc(C(=O)c2c(C)oc3c(OP(=O)([O-])[O-])c(OC)ccc23)cc(OC)c1OC.[Na+].[Na+] [Example 2, Disodium 6-methoxy-2-methyl-3-(3,4,5-trimethoxybenzoyl)benzofuran-7-yl phosphate]
EC50 [1]: 23.3 nM | Disruption of endothelial cell cytoskeleton (blebbing) [2]: clear evidence of “blebbing” | Effect on capillary formation on Matrigel [3]: inhibited | EC50 [4]: 12.5 nM | Disruption of stable pre-formed capillaries [5]: does not disrupt stable pre-formed capillaries
